# Tested on: human CD8^+ T cells
# Assay: Human CD3+ T cells from PBMC stimulated with aCD3/aCD28 beads in presence of UA
# Assay type: cell-based
# Design: frequency of human TSCM cells (CD45RA+CCR7hiCD62L+CD95+CD8+): dose or concentration left out as unconfirmed
# Procedure: (FIG. 5L) UA induces PGC-1α expression in stimulated CD8+ cells. PGC-1α MFI at 48 h upon stimulation, as assessed by intracellular staining, is shown (n=3). One of two independent experiments are shown. Data are mean ± SD, statistical analysis was performed by two-sided t-test (p**<0.01). (FIG. 5M) Mitochondrial content of TIL CD8+ cells harvested from APTK-carrying mice, fed UA or control diet as depicted in FIG. 1J. Assessed by Mitotracker Red staining. Data are mean ± SD, *p < 0.05 by two-sided t-test. (FIG. 5N) Mitophagy and subsequent PGAM5 release drive PGC-1α upregulation. PGC-1α expression of CD8+ cells derived from Pink1^-/- KO mice upon 48 h stimulation in vitro in the presence of UA or DMSO control (n=4). Data are mean ± SD, statistical analysis was performed by two-sided t-test. Depicts one of two independent experiments. (FIG. 5O) Mitophagy and subsequent PGAM5 release drive PGC-1 α upregulation. PGC-1α expression of CD8+ cells derived from PGAM5^-^/- mice upon 48 h stimulation in vitro in the presence of UA or DMSO control (n=4). Data are mean ± SD, statistical analysis was performed by two-sided t-test. […] Cells were co-treated with DMSO, UA and an inhibitor of PGC-1α (PGC-1αi) as indicated (n=4). One of two independent experiments are shown. Data are mean ± SD, statistical analysis was performed by two-sided t-test (p**<0.01; ***p <0.001; n.s. not significant).(FIG. 5Q) Urolithin A induces TSCM in human CD8+ cells: Schematic overview. PBMC were isolated from healthy donors, prior to T cell purification and in vitro stimulation via aCD3/aCD28 stimulation beads at the presence of UA or DMSO control. (FIG. 5R) Quantification of human TSCM (n=4). Representative data of one out of five donors with the same result are shown. (FIG. 5S) Quantification of TMRM^loCD8+ human cells 48 h after activation in the presence of UA or DMSO control (n=4). (FIG. 5T) TCF1 expression in human CD8 cells as assessed by flow cytometry (n=4). All data are mean ± SD; statistical analysis was performed by two-sided t-test (*p < 0.05; p**<0.01; p****0.0001).
# (FIG. 6A) Human PBMC were isolated from healthy donors, T cells were purified and stimulated ex-vivo with αCD3/αCD28 in the presence of UA ([…]) or DMSO control.
# (FIG. 6B) Frequency of human TSCM 48 h after stimulation as shown in (A). Data are mean ± SD, n=4, ****p<0.0001 by one-way ANOVA followed by Tukey’s multiple comparison test.
# (FIG. 6C) Quantification of human TMRM^loCD8^+ T cells 48 h after stimulation in the presence of UA or DMSO control .Data are mean ± SD, n=4,**p<0.01 by two-sided t test.
# (FIG. 6D) TCF1 expression in human CD8+ T cells 48 h after stimulation in the presence of UA or DMSO control. Data are mean ± SD, n=4,*p<0.05by two-sided t test. […]
smiles,measurement,setting,value
O=c1oc2cc(O)ccc2c2ccc(O)cc12 [Urolithin A],CD95hiCD62L+ cells within the CD45RA+CCR7hiCD8+ compartment,,dose-dependent increase
same,TCF1 expression (intracellular staining),48 h,increased TCF1 expression
same,frequency of human TSCM cells (CD45RA+CCR7hiCD62L+CD95+CD8+),"48 h, five out of five individual donors",increased the frequency
same,mitochondrial membrane potential,after 48 hours,decreased mitochondrial membrane potential

# From patent US20230277669A1, “USES OF UROLITHINS” (Amazentis SA, priority 2022, published 2023)
